Like-named read-outs stand apart in the source and are kept apart here.
How the values were obtained:
[1] = test system: NCI-H358 cells (express KRas G12C), Phospho-ERK; assay: Cellular inhibition of KRas G12C: Phospho-ERK in NCI-H358 cells; format: cell-based; details: pERK(Thr202/Tyr204) normalized with GAPDH, NCI-H358 cells, 3 hours, read-out: IC50
Description: The cellular inhibition of KRAs G12C by exemplary compounds of the present invention was determined by measuring the amount of a downstream marker of KRas activity, phosphorylated ERK (“Phospho-ERK”).
Cells were plated in poly-D-Lysine coated 96-well plates at a concentration of 50,000 cells/well and allowed to attach for 8-12 hours. Diluted compounds were then added at a final concentration of 0.5% DMSO. After 3 hours, the medium was removed, 150 μL of 4% formaldehyde was added and the plates were incubated for 20 minutes. The plates were washed with PBS, and permeabilized using 150 μL of ice cold 100% methanol for 10 minutes. Non-specific antibody binding to the plates was blocked using 100 μL Licor Blocking Buffer (Li-Cor Biotechnology, Lincoln Nebr.) for 1 hour at room temperature. Positive control samples and samples lacking cells were parallel processed with test samples as standards.
The amount Phospho-ERK was determined using an antibody specific for the phosphorylated form of ERK and compared to the amount of GAPDH. […] The plates were incubated for 2 hours at room temperature. The plates were washed with PBS+0.05% Tween 20.
Secondary antibodies used to visualize primary antibodies were added as follows: Anti-rabbit-680 diluted 1:1000 and Anti-mouse-800 diluted 1:1000 in Licor Block+0.05% Tween 20 and incubated for 1 hour at room temperature. The plates were washed with PBS+0.05% Tween 20. A 100 μL aliquot of PBS was added to each well and the plates were read on a LICOR AERIUS plate reader.
The pERK(Thr202/Tyr204) signal was normalized with the GAPDH signal and percent of DMSO control values were calculated. IC50 values were generated using a 4 parameter fit of the dose response curve. Key: “A”≥0.0001−≤1 μM; and “B”>1 μM.

KRas G12C = KRas G12C (Homo sapiens, UniProt P01116, C118S/C51S/C80L/G12C); assay: KRas G12C Modification Assay (LCMS detection of covalent adduct); format: binding; details: normalized percent of control; tested at 5 μM concentration for 3 hours
Description: A 10 μL aliquot of each protein solution was then transferred to a 384 well microtiter plate. Initial compound stocks were generated at fifty times their desired final assay concentration in DMSO.
Exemplary compounds of Formula (I) were diluted 25-fold into K-Ras Assay Buffer to a final of two times their final concentration. A 10 μL aliquot of each diluted compound solution was then added to each of the protein solutions in the microtiter plate to initiate reaction. […] At each time point, the reactions were quenched with 20 μL of a 25 mM acetic acid solution. […] Once all reactions were quenched, the plates were heat sealed and the samples were injected into a LC/MS system for data acquisition.
Samples were injected in their liquid phase onto a C-3 reverse phase column to remove assay buffer and prepare the samples for mass spectrometer. The proteins were eluted from the column using an acetonitrile gradient and fed directly into the mass analyzer. Initial raw data analysis took place in Agilent MassHunter software immediately post data acquisition.
Raw data analysis of the intact protein was exclusively a deconvolution of the multiple charge states of each protein in solution using a maximum entropy deconvolution provided in Mass Hunter. To minimize complexity, only the data over limited mass ranges were considered for analysis, with a minimum of one Dalton mass step intervals. The heights of all masses identified during raw data analysis were exported to be further analyzed in Spotfire® data analysis software.
Final data analysis was a multistep process in the Spotfire® data analysis software package. Briefly, each protein mass was calculated as a percent of the total signal of that sample, that percentage was then normalized to the percentage of signal of the protein in the absence of reactive compounds. Those normalized signals were reported as normalized percent of control (POC). […] Key: “A”≤25% POC; “B”>25% POC−≤50% POC; “C”>50% POC and ND=not determined.

SMILES	POC (KRas G12C)	IC50 ([1]; Homo sapiens) [nM]	IC50 ([1]; Homo sapiens, NCI-H358, 3 h) [nM]	IC50 [1] [nM]
C=CC(=O)N1CCN(c2nc(NCCCN3CCOCC3)nc3c2CCN(c2cc(O)cc4ccccc24)C3)CC1 [Example 133, 1-[4-[7-(3-hydroxy-1-naphthyl)-2-(3-morpholinopropylamino)-6,8-dihydro-5H-pyrido[3,4-d]pyrimidin-4-yl]piperazin-1-yl]prop-2-en-1-one]	C (“C”>50% POC)	> 1000	–	–
C=CC(=O)N1CCN(c2nc(OCCCN3C[C@@H]4C[C@H]3CO4)nc3c2CCN(c2cccc4cccc(C)c24)C3)C[C@@H]1CC#N [Example 369, 2-((S)-4-(2-(3-((1 S,4S)-2-oxa-5-azabicyclo[2.2.1]heptan-5-yl)propoxy)-7-(8-methylnaphthalen-1-yl)-5,6,7,8-tetrahydropyrido[3,4-d]pyrimidin-4-yl)-1-acryloylpiperazin-2-yl)acetonitrile]	C (“C”>50% POC)	–	0.1 to 1000	–
C=CC(=O)N1CCN(c2nc(OC[C@@H]3CCCN3C)nc3c2CCN(c2c(C)ccc4[nH]ncc24)C3)CC1CC#N (stereo partly drawn) [Example 148, 2-[4-[7-(5-methyl-1H-indazol-4-yl)-2-[[(2S)-1-methylpyrrolidin-2-yl]methoxy]-6,8-dihydro-5H-pyrido[3,4-d]pyrimidin-4-yl]-1-prop-2-enoyl-piperazin-2-yl]acetonitrile]	C (“C”>50% POC)	0.1 to 1000	–	–
CN1CCC[C@H]1COc1nc2c(c(N3CCN(C(=O)/C=C/CN4CCOCC4)[C@@H](CC#N)C3)n1)CCN(c1cccc3cccc(Cl)c13)C2 [Example 367, 2-[(2S)-4-[7-(8-chloro-1-naphthyl)-2-[[(2S)-1-methylpyrrolidin-2-yl]methoxy]-6,8-dihydro-5H-pyrido[3,4-d]pyrimidin-4-yl]-1-[(E)-4-morpholinobut-2-enoyl]piperazin-2-yl]acetonitrile]	C (“C”>50% POC)	–	0.1 to 1000	–
C=CC(=O)N1CCN(c2nc(OC[C@@H]3CCCN3C)nc3c2CCN(c2cccc4cccc(C)c24)C3)CC1CC#N (stereo partly drawn) [Example 309, 2-(1-acryloyl-4-(7-(8-methylnaphthalen-1-yl)-2-(((S)-1-methylpyrrolidin-2-yl)methoxy)-5,6,7,8-tetrahydropyrido[3,4-d]pyrimidin-4-yl)piperazin-2-yl)acetonitrile]	C (“C”>50% POC)	–	0.1 to 1000	–
C=CC(=O)N1CCN(c2nc(OCCCN3CCCC3)nc3c2CCN(c2cc(O)cc4ccccc24)C3)CC1 [Example 39, 1-(4-(7-(3-hydroxynaphthalen-1-yl)-2-(3-(pyrrolidin-1-yl)propoxy)-5,6,7,8-tetrahydropyrido[3,4-d]pyrimidin-4-yl)piperazin-1-yl)prop-2-en-1-one]	C (“C”>50% POC)	–	0.1 to 1000	–
C=CC(=O)N1CCN(c2nc(OC[C@@H]3C[C@@H](OC)CN3C)nc3c2CCN(c2cccc4ccccc24)C3)CC1CC#N (stereo partly drawn) [Example 381, 2-(1-acryloyl-4-(2-(((2S,4R)-4-methoxy-1-methylpyrrolidin-2-yl)methoxy)-7-(naphthalen-1-yl)-5,6,7,8-tetrahydropyrido[3,4-d]pyrimidin-4-yl)piperazin-2-yl)acetonitrile]	C (“C”>50% POC)	–	–	0.1 to 1000
C=CC(=O)N1CCN(c2nc(OC[C@@H]3CCCN3C)nc3c2CCN(c2c(C)ccc4cn[nH]c24)C3)CC1CC#N (stereo partly drawn) [Example 238, 2-(1-acryloyl-4-(7-(6-methyl-1H-indazol-7-yl)-2-(((S)-1-methylpyrrolidin-2-yl)methoxy)-5,6,7,8-tetrahydropyrido[3,4-d]pyrimidin-4-yl)piperazin-2-yl)acetonitrile]	C (“C”>50% POC)	–	0.1 to 1000	–
C=CC(=O)N1CCN(c2nc(OC[C@@H]3CCCN3C)nc3c2CCN(c2cccc4cccc(Br)c24)C3)C[C@@H]1CC#N [Example 461, 2-((S)-1-acryloyl-4-(7-(8-bromonaphthalen-1-yl)-2-(((S)-1-methylpyrrolidin-2-yl)methoxy)-5,6,7,8-tetrahydropyrido[3,4-d]pyrimidin-4-yl)piperazin-2-yl)acetonitrile]	C (“C”>50% POC)	–	0.1 to 1000	–
C=CC(=O)N1CCN(c2nc(OC[C@@H]3CCCN3C)nc3c2CCN(c2c(F)ccc4ccccc24)C3)CC1CC#N (stereo partly drawn) [Example 311, 2-(1-acryloyl-4-(7-(2-fluoronaphthalen-1-yl)-2-(((S)-1-methylpyrrolidin-2-yl)methoxy)-5,6,7,8-tetrahydropyrido[3,4-d]pyrimidin-4-yl)piperazin-2-yl)acetonitrile]	C (“C”>50% POC)	–	0.1 to 1000	–
C=CC(=O)N1CCN(c2nc(OC[C@@H]3CCN(C)C3)nc3c2CCN(c2cccc4ccccc24)C3)C[C@@H]1CC#N [Example 409, 2-((S)-1-acryloyl-4-(2-(((R)-1-methylpyrrolidin-3-yl)methoxy)-7-(naphthalen-1-yl)-5,6,7,8-tetrahydropyrido[3,4-d]pyrimidin-4-yl)piperazin-2-yl)acetonitrile]	C (“C”>50% POC)	–	0.1 to 1000	–
C=CC(=O)N1CCN(c2nc(OCC(O)CO)nc3c2CCN(c2cc(O)cc4ccccc24)C3)CC1 (stereo not drawn) [Example 143, 1-[4-[2-(2,3-dihydroxypropoxy)-7-(3-hydroxy-1-naphthyl)-6,8-dihydro-5H-pyrido[3,4-d]pyrimidin-4-yl]piperazin-1-yl]prop-2-en-1-one]	C (“C”>50% POC)	–	> 1000	–
C=CC(=O)N1CCN(c2nc(N3CC[C@H](N(C)C)C3)nc3c2CCN(c2cccc4ccccc24)C3)C[C@@H]1CC#N [Example 402]	C (“C”>50% POC)	–	0.1 to 1000	–

More lines, main results first:

POC (KRas G12C)	SMILES	IC50 ([1]; Homo sapiens) [nM]	IC50 ([1]; Homo sapiens, NCI-H358, 3 h) [nM]	IC50 [1] [nM]
C (“C”>50% POC)	C=CC(=O)N1CCN(c2nc(OCCCN3CCOCC3)nc3c2CCN(c2cc(O)cc4cc(C)ccc24)C3)CC1 [Example 43, 1-(4-(7-(3-hydroxy-6-methylnaphthalen-1-yl)-2-(3-morpholinopropoxy)-5,6,7,8-tetrahydropyrido[3,4-d]pyrimidin-4-yl)piperazin-1-yl)prop-2-en-1-one]	> 1000	–	–
C (“C”>50% POC)	C=CC(=O)N1CCN(c2nc(OCCN(C)CCOC)nc3c2CCN(c2cc(O)cc4ccccc24)C3)CC1 [Example 107, 1-(4-(7-(3-hydroxynaphthalen-1-yl)-2-(2-((2-methoxyethyl)(methyl)amino)ethoxy)-5,6,7,8-tetrahydropyrido[3,4-d]pyrimidin-4-yl)piperazin-1-yl)prop-2-en-1-one]	–	> 1000	–
A (“A”≤25% POC)	C=CC(=O)N1CCN(c2ncnc3c2CCN(c2cc(O)ccc2F)C3)CC1 [Example 5, 1-(4-(7-(2-fluoro-5-hydroxyphenyl)-5,6,7,8-tetrahydropyrido[3,4-d]pyrimidin-4-yl)piperazin-1-yl)prop-2-en-1-one]	–	> 1000	–
C (“C”>50% POC)	C=CC(=O)N1CCN(c2nc(OC[C@@H]3CCCN3C)nc3c2CCN(c2ccc(F)c4ccccc24)C3)C[C@@H]1CC#N [Example 316, 2-((S)-1-acryloyl-4-(7-(4-fluoronaphthalen-1-yl)-2-(((S)-1-methylpyrrolidin-2-yl)methoxy)-5,6,7,8-tetrahydropyrido[3,4-d]pyrimidin-4-yl)piperazin-2-yl)acetonitrile]	–	0.1 to 1000	–
A (“A”≤25% POC)	C=CC(=O)N1CCN(c2nc(OCCCN(C)C)nc3c2CCN(C(C)c2ccccc2)C3)CC1 (stereo not drawn) [Example 25, 1-(4-(2-(3-(dimethylamino)propoxy)-7-(1-phenylethyl)-5,6,7,8-tetrahydropyrido[3,4-d]pyrimidin-4-yl)piperazin-1-yl)prop-2-en-1-one]	> 1000	–	–

— patent US10125134B2 (Mirati Therapeutics, Inc., priority 2016, dated 2018)
